Results on 14 molecules are retold here after US9062061B2, “Compound having PARP inhibitory activity” (SANTEN PHARMACEUTICAL CO., LTD., priority 2011, dated 2015).

One experiment has as its target T1, human recombinant PARP1 (Homo sapiens, UniProt P09874).
T1 construct: purchased Trevigen 4677-096-K
Put plainly: PARP inhibitory activity measurement test (Universal Colorimetric PARP Assay kit, Trevigen). The following applies: compound concentration: 10 μM, read-out: PARP1 inhibition rate (%). The experiment is classed as biochemical. Here is the method:
For evaluating PARP inhibitory activity of the present compound, inhibitory activity of each test compound against human recombinant PARP 1 was measured using Universal Colorimetric PARP Assay kit with Histone-Coated Strip Wells (Cat No.: 4677-096-K) available from Trevigen. The test was conducted according to the procedure in the instruction attached to this kit. The concrete operation will be described below.
After dissolving the test compound in dimethyl sulfoxide, the solution was diluted with a PARP buffer attached to the kit to prepare a 50 μM test compound solution.
In each well of a histone-coated 96-well plate, 10 μL of the test compound solution (50 μM), 15 μL of human recombinant PARP1 (33.3 Unit/mL) and 25 μL of PARP cocktail (containing activated DNA and biotinated NAD) were added, and incubated at room temperature for 1 hour (final reaction amount: 50 μL). Each well was washed twice with 200 μL of 0.1% Triton-X-containing Dulbecco's phosphate buffer, and further washed twice with 200 μL of Dulbecco's phosphate buffer, and then 50 μL of Strep-HRP was added, followed by incubation at room temperature for 1 hour. Each well was washed twice with 200 μL of 0.1% Triton-X-containing Dulbecco's phosphate buffer, and further washed twice with 200 μL of Dulbecco's phosphate buffer, and then 50 μL of TACS-Sapphire coloriometric substrate was added, followed by incubation at room temperature for 15 minutes. After stopping the reaction by adding 50 μL of 0.2 M HCl, absorbance at 450 nm (Abs 450) was measured by a microplate reader. The number of examples in each group was 1 to 2.
Using a well into which dimethyl sulfoxide and a PARP buffer were added in place of the test compound solution and human recombinant PARP1, the above operation was conducted as a negative control.
Using a well into which a PARP buffer containing dimethyl sulfoxide was added in place of the test compound solution, the above operation was conducted as a positive control.
PARP1 inhibition rate (%) was calculated according to the following Formula 1. PARP1 inhibition rate(%)=(AbsB−AbsX)/(AbsB−AbsA)×100 [Formula 1]
AbsA: absorbance of negative control (Abs 450)
AbsB: absorbance of positive control (Abs 450)
AbsX: absorbance of test compound-treated group (Abs 450)

The test system of experiment [1] is rat thrombin-induced retinal vascular hyperpermeability model. Put plainly: Retinal vascular hyperpermeability inhibitory activity in rat thrombin model (intravitreal protein concentration, Bradford method). The following applies: thrombin 3 U/eye intravitreal; test compound 100 mg/kg orally 1.5 hours before and 22.5 hours after thrombin; Brown Norway male rats. The experiment is classed as in vivo. The method, then:
For examining the influence of the present compound on retinal vascular hyperpermeability, the retinal vascular hyperpermeability inhibitory activity of the test compound was evaluated using a rat thrombin-induced retinal vascular hyperpermeability model. The rat thrombin-induced retinal vascular hyperpermeability model is an animal in which retinal vascular permeability is increased by administration of thrombin, and is used as a model animal for diabetic retinopathy, diabetic macular edema and so on (IONS, 2000, 41(4), S18, 92).
A thrombin liquid preparation was intravitreally administered to 8-week old Brown Norway male rat at a dose of 3 U/eye, and the vitreous body was collected on the next day of administration, and intravitreal protein concentration was measured by the Bradford method. A normal control group received intravitreal administration of DPBS. The number of examples in each group was 4 rats (7-8 eyes).
(Administration Method) • Test compound-administered group: A solution of each test compound suspended in 1% (w/v) methylcellulose aqueous solution was orally administered in a dose of 100 mg/kg, 1.5 hours before and 22.5 hours after thrombin administration. • Normal control group and vehicle-administered group
According to the following Formula 3, retinal vascular hyperpermeability inhibition rate was calculated. […]

In experiment [2] the test system is rat N-methyl-N-nitrosourea (MNU)-induced retinal degeneration model. Put plainly: Retinal degeneration inhibitory activity in rat MNU-induced model (retinal volume by OCT). It is filed as in vivo. The following applies: po, 168 h, seventh day, Brown Norway male rats, read-out: Retinal volume reduction inhibition rate (%); for inhibition in vivo at 10 mg/kg: test compound 10 mg/kg orally once 30 minutes before MNU. Here is the method:
For examining influence of the present compound on the retinal degeneration, retinal degeneration inhibitory activity of test compound was evaluated, using a rat N-methyl-N-nitrosourea (hereinafter, “MNU”)-induced retinal degeneration model. The rat MNU-induced retinal degeneration model is a model animal in which cell death of retinal photoreceptor cell is induced by administration of MNU which is a DNA alkylation agent, and is generally used as a model animal for chorioretinal degenerative diseases such as retinitis pigmentosa (Exp. Eye. Res., 84(2), 285-292 (2007)).
By the previous day of MNU administration, retinal volumes of 8-week-old Brown Norway male rats were measured by using optical coherence tomography (OCT) (product of Carl Zeiss, model number: STRATUS OCT Model 3000). An MNU administration liquid was intraperitoneally administered to the rats at a dose of 50 to 60 mg/kg, and on the seventh day after administration, retinal volumes were measured by using OCT. The normal control group underwent no treatment, and retinal volumes were measured on the same day as the MNU administration group. The number of examples in each group was 4 rats (8 eyes).
(Administration Method) • Test compound-administered group: A solution of each test compound suspended in 1% (w/v) methylcellulose aqueous solution was orally administered once 30 minutes before MNU administration at a dose of 1 to 30 mg/kg. • Normal control group and vehicle-administered group: 1% (w/v) methylcellulose aqueous solution was orally administered once 30 minutes before MNU administration.
According to the following Formula 2, retinal volume reduction inhibition rate (%) was calculated. Retinal volume reduction inhibition rate(%)=(RVX-pre/RVX-post−RVB-pre/RVB-post)/(RVA-pre/RVA-post−RVB-pre/RVB-post)×100 [Formula 2]
RVA-pre: retinal volume before MNU administration of normal control group (mm^3)
RVA-post: retinal volume on the seventh day after MNU administration of normal control group (mm^3)
RVB-pre: retinal volume before MNU administration of vehicle-administered group (mm^3)
RVB-post: retinal volume on the seventh day after MNU administration of vehicle-administered group (mm^3)
RVX-pre: retinal volume before MNU administration of test compound-administered group (mm^3)
RVX-post: retinal volume on the seventh day after MNU administration of test compound-administered group (mm^3)

Each structure is given as a SMILES string. Where two headings read alike, the source gives them in different places.

T1 sequence (P09874 whole entry): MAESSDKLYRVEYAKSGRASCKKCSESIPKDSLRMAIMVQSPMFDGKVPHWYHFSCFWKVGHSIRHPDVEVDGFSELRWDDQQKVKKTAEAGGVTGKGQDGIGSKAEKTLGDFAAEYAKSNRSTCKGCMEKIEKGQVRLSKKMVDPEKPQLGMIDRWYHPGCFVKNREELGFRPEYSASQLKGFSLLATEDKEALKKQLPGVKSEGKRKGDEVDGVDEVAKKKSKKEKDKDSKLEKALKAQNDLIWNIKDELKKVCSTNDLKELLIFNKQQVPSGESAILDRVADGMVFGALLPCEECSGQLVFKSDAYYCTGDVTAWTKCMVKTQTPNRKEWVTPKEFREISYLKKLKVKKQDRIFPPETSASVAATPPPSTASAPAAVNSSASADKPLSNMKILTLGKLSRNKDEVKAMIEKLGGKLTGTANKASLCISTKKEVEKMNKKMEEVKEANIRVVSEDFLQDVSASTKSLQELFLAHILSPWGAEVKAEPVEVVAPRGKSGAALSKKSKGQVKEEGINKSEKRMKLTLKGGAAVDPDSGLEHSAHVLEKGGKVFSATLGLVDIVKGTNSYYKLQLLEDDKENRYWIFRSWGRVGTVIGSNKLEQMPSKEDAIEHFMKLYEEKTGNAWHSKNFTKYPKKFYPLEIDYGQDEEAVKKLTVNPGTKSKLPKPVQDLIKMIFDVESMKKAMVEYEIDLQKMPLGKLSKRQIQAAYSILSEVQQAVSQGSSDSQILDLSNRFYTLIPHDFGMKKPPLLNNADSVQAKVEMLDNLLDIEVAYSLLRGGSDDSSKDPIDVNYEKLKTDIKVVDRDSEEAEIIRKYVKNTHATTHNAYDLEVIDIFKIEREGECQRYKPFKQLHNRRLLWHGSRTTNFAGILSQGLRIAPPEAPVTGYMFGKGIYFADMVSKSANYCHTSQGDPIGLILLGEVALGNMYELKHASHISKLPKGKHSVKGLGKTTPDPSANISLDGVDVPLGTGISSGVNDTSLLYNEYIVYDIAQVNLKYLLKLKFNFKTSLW

Usually inhibition stands for how much of the control response was suppressed. With `O=c1[nH]c2cc(CN3CCN(c4ccc(F)cc4)CC3)cn2c2ccccc12` [Compound 2-1, 2-[4-(4-Fluorophenyl)piperazin-1-ylmethyl]pyrrolo[1,2-a]quinazolin-5 (4H)-one], at human recombinant PARP1, the inhibition at 10 µM turned out to be 100%. Also, the “Retinal vascular hyperpermeability inhibition rate (%)” value in experiment [1] is 63%. In experiment [2] (MNU 60 mg/kg i.p.), the inhibition in vivo at 10 mg/kg stood at 65%.
Take `O=c1[nH]c2cc(CN3CC=C(c4ccc(F)cc4)CC3)cn2c2ccccc12` [Compound 2-8, 2-[4-(4-Fluorophenyl)-1,2,3,6-tetrahydropyridin-1-ylmethyl]pyrrolo[1,2-a]quinazolin-5(4H)-one]: the inhibition at 10 µM on human recombinant PARP1 amounted to 100%. Also, the inhibition in vivo at 10 mg/kg in experiment [2] (MNU 50 mg/kg i.p.) worked out at 39%.
With `O=c1[nH]c2cc(CN3CCN(c4ccccc4F)CC3)cn2c2ccccc12` [Compound 2-9, 2-[4-(2-Fluorophenyl)piperazin-1-ylmethyl]pyrrolo[1,2-a]quinazolin-5(4H)-one], at human recombinant PARP1, the inhibition at 10 µM came to 99%. For the same molecule, in experiment [2] (MNU 50 mg/kg i.p.), the inhibition in vivo at 10 mg/kg amounted to 25%.
For `O=c1[nH]c2cc(CN3CCN(c4ccc(Cl)cc4)CC3)cn2c2ccccc12` [Compound 2-12, 2-[4-(4-Chlorophenyl)piperazin-1-ylmethyl]pyrrolo[1,2-a]quinazolin-5(4H)-one], the inhibition at 10 µM on human recombinant PARP1 stood at 100%. For the same molecule, the inhibition in vivo at 30 mg/kg in experiment [2] (MNU 60 mg/kg i.p., test compound 30 mg/kg orally once 30 minutes before MNU) is 47%.
In the case of `O=c1[nH]c2cc(CN3CCC(c4ccc(F)cc4)CC3)cn2c2ccccc12` [Compound 2-14, 2-[4-(4-Fluorophenyl)piperidin-1-ylmethyl]pyrrolo[1,2-a]quinazolin-5(4H)-one], at human recombinant PARP1, the inhibition at 10 µM was found to be 100%. In addition, the inhibition in vivo at 10 mg/kg in experiment [2] (MNU 50 mg/kg i.p.) came to 33%.
In the case of `COc1ccc(N2CCN(Cc3cc4[nH]c(=O)c5ccccc5n4c3)CC2)cc1` [Compound 2-16, 2-[4-(4-Methoxyphenyl)piperazin-1-ylmethyl]pyrrolo[1,2-a]quinazolin-5(4H)-one], the inhibition at 10 µM at human recombinant PARP1 worked out at 100%. Besides, the inhibition in vivo at 10 mg/kg in experiment [2] (MNU 50 mg/kg i.p.) is 29%.
Turning to `O=c1[nH]c2cc(CN3CCN(c4ccccn4)CC3)cn2c2ccccc12` [Compound 2-17, 2-[4-(Pyridin-2-yl)piperazin-1-ylmethyl]pyrrolo[1,2-a]quinazolin-5(4H)-one], the inhibition at 10 µM at human recombinant PARP1 stood at 100%. Moreover, in experiment [2] (MNU 50 mg/kg i.p.), the inhibition in vivo at 10 mg/kg is 48%.
As to `O=c1[nH]c2cc(CN3CCN(c4ccc(Cl)cn4)CC3)cn2c2ccccc12` [Compound 2-30, 2-[4-(5-Chloropyridin-2-yl)piperazin-1-ylmethyl]pyrrolo[1,2-a]quinazolin-5(4H)-one], at human recombinant PARP1, the inhibition at 10 µM amounted to 100%. Also, the inhibition in vivo at 10 mg/kg in experiment [2] (MNU 50 mg/kg i.p.) is 72%.
Turning to `O=c1[nH]c2cc(CN3CCN(c4ccc(F)cc4F)CC3)cn2c2ccccc12` [Compound 2-35, 2-[4-(2,4-Difluorophenyl)piperazin-1-ylmethyl]pyrrolo[1,2-a]quinazolin-5(4H)-one], the inhibition at 10 µM at human recombinant PARP1 came to 100%. In addition, the inhibition in vivo at 10 mg/kg in experiment [2] (MNU 50 mg/kg i.p.) is 61%.
For `COc1cc(F)ccc1N1CCN(Cc2cc3[nH]c(=O)c4ccccc4n3c2)CC1` [Compound 2-39, 2-[4-(4-Fluoro-2-methoxyphenyl)piperazin-1-ylmethyl]pyrrolo[1,2-a]quinazolin-5(4H)-one], in that order: 100% and 84%.
`O=c1[nH]c2cc(CN3CCN(c4ccc5c(c4)OCO5)CC3)cn2c2ccccc12` [Compound 2-40, 2-[4-(1,3-Benzodioxol-5-yl)piperazin-1-ylmethyl]pyrrolo[1,2-a]quinazolin-5(4H)-one]: at human recombinant PARP1, the inhibition at 10 µM was 100%. Also, in experiment [2] (MNU 50 mg/kg i.p.), the inhibition in vivo at 10 mg/kg worked out at 88%.
As to `O=c1[nH]c2cc(CN3CCN(c4ccccn4)CC3)cn2c2ccc(F)cc12` [Compound 2-44, 7-Fluoro-2-[4-(pyridin-2-yl)piperazin-1-ylmethyl]pyrrolo[1,2-a]quinazolin-5(4H)-one], at human recombinant PARP1, the inhibition at 10 µM was found to be 98%. Further, in experiment [2] (MNU 50 mg/kg i.p.), the inhibition in vivo at 10 mg/kg was 81%.
In the case of `O=c1[nH]c2cc(CN3CCN(c4ccc(F)cc4)CC3)cn2c2ccc(F)cc12` [Compound 2-45, 7-Fluoro-2-[4-(4-fluorophenyl)piperazin-1-ylmethyl]pyrrolo[1,2-a]quinazolin-5(4H)-one], the inhibition at 10 µM at human recombinant PARP1 stood at 100%. The inhibition in vivo at 1 mg/kg in experiment [2] (MNU 50 mg/kg i.p., test compound 1 mg/kg orally once 30 minutes before MNU) turned out to be 81%.
In the case of `[2H]C([2H])(c1cc2[nH]c(=O)c3ccccc3n2c1)N1CCN(c2ccc(F)cc2)CC1` [Compound 4-1, 2-[1-[4-(4-Fluorophenyl)piperazin-1-yl]-1,1-dideuteriomethyl]pyrrolo[1,2-a]quinazolin-5(4H)-one], at human recombinant PARP1, the inhibition at 10 µM amounted to 100%. Besides, in experiment [2] (MNU 50 mg/kg i.p.), the inhibition in vivo at 10 mg/kg is 94%.
